We go through one compound from US20230124862A1, “BISMUTH THIOL COMPOUNDS AND COMPOSITIONS AND METHODS OF TREATING MICROBIAL CO-INFECTIONS” (Microbion Corporation, priority 2020, published 2023).

Assay [1] deals with S. aureus ATCC 29213. The note with it: control strain ATCC 29213; cited from earlier work.
The subject of assay [2] is E. coli ATCC 25922. The following applies: control strain ATCC 25922; cited from earlier work.
For assay [3], the system named is Achromobacter spp. The assay is described as follows: MIC testing of CF isolates. The note with it: strain AX4, A. xylosoxidans; read-out: MIC. In kind it is cell-based.
Assay [4] concerns B. multivorans. The assay is described as follows: MIC testing of CF isolates. Format: cell-based, Burkholderia multivorans. The following applies: Burkholderia multivorans; strain BC5b; read-out: MIC.
The subject of assay [5] is Burkholderia cepacia complex. Briefly: Checkerboard FIC/FICI assay. Format: cell-based, Burkholderia spp. The note with it: for MICB: MIC of Amikacin (Drug B) in combination with BisEDT.
Assay [6] has as its system B. cepacia. The assay is described as follows: MIC testing of CF isolates. The note with it: Burkholderia cepacia; strain BC17; read-out: MIC. In kind it is cell-based, Burkholderia cepacia.
Assay [7] deals with B. cenocepacia. The assay is described as follows: MIC testing of CF isolates. Format: cell-based, Burkholderia cenocepacia.
The test system of assay [8] is S. maltophilia. Briefly: MIC testing of CF isolates. The note with it: strain SM21. Format: cell-based, Stenotrophomonas maltophilia.
The subject of assay [9] is P. aeruginosa. The assay is described as follows: Checkerboard FIC/FICI assay. Format: cell-based, Pseudomonas aeruginosa. The note with it: for FICB / MICB: Amikacin in combination with BisEDT.
Where [10] appears, read: P. aeruginosa 6322, one value per panel row D-G.
Where [11] appears, read: P. aeruginosa 6977, by checkerboard.
Setting [12] is: P. aeruginosa 7745, by checkerboard.

Each structure is given as a SMILES string. Values after ≈ are worked out from the molar mass of the structure shown. Values joined by “and” are separate entries in the source; they are usually repeats but may differ in a detail not shown here. Equal values may be shown once. Read-outs that look alike come from different tables or passages of the source.

Regarding `NCC[C@H](O)C(=O)N[C@@H]1C[C@H](N)[C@@H](O[C@H]2O[C@H](CN)[C@@H](O)[C@H](O)[C@H]2O)[C@H](O)[C@H]1O[C@H]1O[C@H](CO)[C@@H](O)[C@H](N)[C@H]1O` [Amikacin, reference compound], the “Expected MIC: goal (acceptable range)” value was […] in [1] and […] in assay [2]. Also, the MIC in [3] is […]; in assay [4] it was […]; in assay [6] it was […]; in assay [7] (Burkholderia cenocepacia, strain BC15, read-out: MIC), […]; in assay [7] (strain AU197) it was […]; in [8] it was […]. For the same compound, in assay [9] (Pseudomonas aeruginosa, P. aeruginosa 6977, Amikacin alone (checkerboard with BisEDT), read-out: Drug B MIC), the minimum inhibitory concentration (MIC) amounted to […]. For the same compound, the FICB in assay [5] (B. cenocepacia 548, FIC of Amikacin (Drug B) in combination with BisEDT) was […]; in [5] (B. cenocepacia 813, FIC of Amikacin (Drug B) in combination with BisEDT) it was […]; in [5] (B. cepacia 546, Amikacin in combination with BisEDT, by checkerboard, Table 60), […]; in [5] (B. cepacia 1793, FIC of Amikacin (Drug B) in combination with BisEDT) it was […]; in assay [5] (B. multivorans 1795, FIC of Amikacin (Drug B) in combination with BisEDT), […]; in [9] (setting [10]) it was […]. For the same compound, the FICB in assay [9] (setting [11]) was found to be […]; in [9] (setting [12]) it was […]. The MICB was […] in [5] (B. cenocepacia 548); […] in assay [5] (B. cenocepacia 813); […] in assay [5] (B. cepacia 1793); […] in [5] (B. multivorans 1795); 128 µg/mL in assay [9] (setting [10]); […] in [9] (setting [11]). Further, in assay [9] (setting [12]), the MICB was 4 µg/mL.

The term MIC denotes the lowest concentration that inhibits growth of the organism.
